“Also recorded” adds a separate entry of the source.
What was measured:
Human heart chymase = molecular target: T1, Human heart chymase (Homo sapiens, UniProt P23946); test: Inhibitory activity of test compounds to human chymase (Suc-Ala-Ala-Pro-Phe-MCA substrate); assay type: biochemical; settings: purified human heart chymase, preincubated 10 min at 30° C., pH 7.5
T1 construct: Human heart chymase was purified according to the method of Urata et al; from tissue; host or cells: human heart
T1 sequence (P23946 22-247): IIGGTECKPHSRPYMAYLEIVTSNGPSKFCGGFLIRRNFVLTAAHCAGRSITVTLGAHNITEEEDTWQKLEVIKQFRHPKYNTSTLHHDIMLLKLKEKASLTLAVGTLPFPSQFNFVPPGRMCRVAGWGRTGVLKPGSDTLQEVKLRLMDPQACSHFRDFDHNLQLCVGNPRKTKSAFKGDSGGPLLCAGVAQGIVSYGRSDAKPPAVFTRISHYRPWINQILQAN
Procedure: Human heart chymase was purified according to the method of Urata et al. (J. Biol. Chem. 265: 22348, 1990). The inhibitory activity of the compound of the present invention was determined as follows. Purified enzyme was diluted with 0.1 M Tris-HCl buffer (pH 7.5) containing 1 M sodium chloride and 0.01% Triton X-100 to appropriate concentrations. Suc-Ala-Ala-Pro-Phe-MCA (Peptide Institute Inc.) was dissolved in 10 mM dimethyl sulfoxide (hereinafter referred to as DMSO) and diluted 20-fold with 0.1 M Tris-HCl buffer (pH 7.5) containing 1 M sodium chloride and 0.01% Triton X-100 to an appropriate concentration to prepare substrate solution.
5 μl of the test sample in DMSO was added to 75 μl of the enzyme solution and preincubated at 30° C. for 10 minutes. Then, 20 μl of the substrate solution was added to the test sample-enzyme mixture, and incubated at 30° C. Ten minutes later, 50 μl of 30% acetic acid was added to stop the enzymatic reaction, and the amount of AMC formed was determined using a fluorophotometer. At the same time, 5 μl of DMSO in stead of the test sample was added and reacted simultaneously as a control. The inhibitory activity to human chymase was calculated based on the value of the control, and then the inhibition percentage and the 50% inhibition concentration (IC50) were determined.

[1] = human, pH 7.2
Procedure: 2 μl of 1 mM test sample in DMSO was added to 198 μl of 50% of human plasma solution in a 50 mM sodium phosphate buffer (pH 7.2) and incubated at 30° C. At 0, 5, and 15 minutes, 800 μl of acetonitrile was added to the test sample-plasma mixture, which was mixed and deproteinized. The supernatant obtained by centrifugation (12,000 rpm, one minute) was diluted with the same volume of distilled water, and the intact compound in the solution was determined by HPLC analysis.
The half life (t1/2) of the test sample in the plasma solution was calculated from the recovery at each time point using an exponential regression analysis.

[2] = test system: lipid deposition in the aorta; test: Aortic lipid deposition model in hamster induced by high-cholesterol diet; assay type: in vivo, Golden Syrian hamsters; settings: 100 mg/kg/day orally for 12 weeks
Procedure: An aorta lipid deposition model was induced by a high-cholesterol diet. A high-cholesterol diet was prepared by adding 0.5% cholesterol and 10% coconut oil (KBT Oriental Co.) to a standard rodent feed containing 5.1% fat and 0.07% cholesterol (KBT oriental Co.). 8-week-old male Golden Syrian hamsters (KBT Oriental Co.) (100-130 g) were given the high-cholesterol diet for 12 weeks to induce lipid deposition in the aorta. A group to which a standard rodent feed was given for 12 weeks was used as the control.
An aortic lipid deposition model was generated as described in Example 3 and used as the high-cholesterol diet group (n=6). A group that received the standard rodent diet for 12 weeks was used as the control group (n=6). […]
The effect on lipid deposition by the chymase no inhibitor was evaluated by harvesting the aorta on week 12 after the start of the high-cholesterol diet and performing a histopathological analysis. […]
Then, the sections were washed with 60% isopropanol and distilled water, and counterstained with hematoxylin for 2 minutes. After washing with 1/4 saturated LiCO3, lipid deposition was evaluated by microscopic observation. Also, the area of the lipid deposition region (the region stained to an orange color with Oil red O) was quantitated on the histological pictures by NIH Image software ver. […]

Row | IC50 (Human heart chymase) | t1/2 (plasma half life) [1] | Compound | lipid deposition area in the aortic cusp region ([2]; FIG. 1, monosodium salt, 100 mg/kg/day) | lipid deposition in the aorta (microscopic examination of the aortic cusp) ([2]; Oil red O staining)
1 | 1.7 µM |  | O=C(O)C1Oc2ccc(S(=O)(=O)n3c(=O)[nH]c4cc(Cl)ccc4c3=O)cc2NC1=O (racemic) [Compound 29, (±)-6-[(7-chloro-2,4(1H,3H)-quinazolinedione-3-yl)sulfonyl]-3-oxo-1,4-benzoxadine-2-carboxylic acid] |  | 
2 | 0.3 µM | 1.62 h | CC(C(=O)O)C(=O)Nc1cccc(S(=O)(=O)n2c(=O)[nH]c3cc(Cl)ccc3c2=O)c1 (centres unmarked) [Compound 13, 2-{3-[(7-chloro-2,4(1H,3H)-quinazolinedione-3-yl)sulfonyl]phenylaminocarbonyl}propionic acid] |  | 
3 |  |  | Nc1cc(S(=O)(=O)n2c(=O)[nH]c3cc(Cl)ccc3c2=O)ccc1C(=O)[O-].[Na+] [Compound 18, 4-[(7-chloro-2,4(1H,3H)-quinazolinedione-3-yl)sulfonyl]anthranilic acid monosodium salt] | decreased; also recorded: significantly suppressed | completely disappeared
